The term TD50 denotes the dose at which the toxic effect under study appears in half of the subjects.

Four compounds from PubChem BioAssay AID1745844 (Carcinogenic Potency Database (CPDB), 2022) can be followed below.

For this data set, the system named is rodent lifetime carcinogenesis bioassay, tumor incidence TD50. Nature of the data set: chronic cancer bioassays in animals – CPDB, compiled studies (AID 1745844).

Activity calls are given as the source filed them. The rule behind the calls is not given here.

Regarding `C[C@]12CC[C@@H]3c4ccc(OC(=O)Cc5ccc(N(CCCl)CCCl)cc5)cc4CC[C@H]3[C@@H]1CC[C@@H]2OC(=O)Cc1ccc(N(CCCl)CCCl)cc1`, the TD50 reads like this: (mouse, strain B6C3F1, females, by gavage, site: all sites + lung + myocardium + stomach, lesion: lymphoma + alveolar/bronchiolar adenoma + alveolar/bronchiolar carcinoma + sarcoma, NOS + squamous-cell carcinoma, dosed 52 weeks, study length 84 weeks) 0.682 mg/kg/day; (mouse, strain B6C3F1, females, by gavage, site: all sites, lesion: lymphoma, dosed 52 weeks, study length 82 weeks) 2.23 mg/kg/day; (mouse, strain B6C3F1, females, by gavage, site: all sites, lesion: lymphoma, dosed 52 weeks, study length 84 weeks) 2.34 mg/kg/day; (mouse, strain B6C3F1, females, by gavage, site: any site (literature study), lesion: several types, types named in the paper, dosed 52 weeks, study length 84 weeks) 0.562 mg/kg/day; (mouse, strain B6C3F1, females, by gavage, site: lung, lesion: alveolar/bronchiolar adenoma + alveolar/bronchiolar carcinoma, dosed 52 weeks, study length 82 weeks) 1.28 mg/kg/day; (mouse, strain B6C3F1, females, by gavage, site: lung, lesion: alveolar/bronchiolar adenoma + alveolar/bronchiolar carcinoma, dosed 52 weeks, study length 84 weeks) 1.14 mg/kg/day. Also, the TD50 (mouse, strain B6C3F1, females, by gavage, site: lung, lesion: alveolar/bronchiolar carcinoma, dosed 52 weeks, study length 82 weeks) stood at 2.87 mg/kg/day; the TD50 (mouse, strain B6C3F1, females, by gavage, site: mammary gland, lesion: adenocarcinoma, NOS + carcinoma, NOS, dosed 52 weeks, study length 82 weeks) is 12.8 mg/kg/day; the TD50 (mouse, strain B6C3F1, females, by gavage, site: mammary gland, lesion: adenocarcinoma, NOS + carcinoma, NOS, dosed 52 weeks, study length 84 weeks) is 13.4 mg/kg/day; the TD50 (mouse, strain B6C3F1, females, by gavage, site: myocardium, lesion: sarcoma, NOS, dosed 52 weeks, study length 82 weeks) was 3.22 mg/kg/day; the TD50 (mouse, strain B6C3F1, females, by gavage, site: myocardium, lesion: sarcoma, NOS, dosed 52 weeks, study length 84 weeks) was 3.01 mg/kg/day; the TD50 (mouse, strain B6C3F1, females, by gavage, site: stomach, lesion: squamous-cell carcinoma, dosed 52 weeks, study length 84 weeks) is 5.17 mg/kg/day. The TD50 reads like this: (mouse, strain B6C3F1, males, by gavage, site: all sites + stomach, lesion: leukemia + lymphoma + squamous-cell carcinoma, dosed 52 weeks, study length 83 weeks) 4.1 mg/kg/day; (mouse, strain B6C3F1, males, by gavage, site: all sites, lesion: leukemia + lymphoma, dosed 52 weeks, study length 81 weeks) 4.31 mg/kg/day; (mouse, strain B6C3F1, males, by gavage, site: all sites, lesion: leukemia + lymphoma, dosed 52 weeks, study length 83 weeks) 4.39 mg/kg/day; (mouse, strain B6C3F1, males, by gavage, site: any site (literature study), lesion: several types, types named in the paper, dosed 52 weeks, study length 83 weeks) 1.96 mg/kg/day; (mouse, strain B6C3F1, males, by gavage, site: lung, lesion: alveolar/bronchiolar adenoma + alveolar/bronchiolar carcinoma, dosed 52 weeks, study length 81 weeks) 1.99 mg/kg/day; (mouse, strain B6C3F1, males, by gavage, site: lung, lesion: alveolar/bronchiolar adenoma + alveolar/bronchiolar carcinoma, dosed 52 weeks, study length 83 weeks) 2.34 mg/kg/day. Besides, the TD50 is 3.61 mg/kg/day (mouse, strain B6C3F1, males, by gavage, site: lung, lesion: alveolar/bronchiolar carcinoma, dosed 52 weeks, study length 81 weeks); 5.55 mg/kg/day (mouse, strain B6C3F1, males, by gavage, site: myocardium, lesion: sarcoma, NOS, dosed 52 weeks, study length 81 weeks); 29 mg/kg/day (mouse, strain B6C3F1, males, by gavage, site: stomach, lesion: squamous-cell carcinoma, dosed 52 weeks, study length 83 weeks); 0.189 mg/kg/day (inactive) (rat, strain Sprague-Dawley, females, by gavage, site: any site (literature study), lesion: several types, types named in the paper, dosed 52 weeks, study length 85 weeks); 3.85 mg/kg/day (inactive) (rat, strain Sprague-Dawley, males, by gavage, site: any site (literature study), lesion: several types, types named in the paper, dosed 52 weeks, study length 85 weeks); 0.756 mg/kg/day (inactive) (rat, strain Sprague-Dawley, males, by gavage, site: mammary gland, lesion: fibroadenoma, dosed 52 weeks, study length 85 weeks).
`Clc1cccc(-c2ccc(Cl)c(Cl)c2Cl)c1Cl`: the TD50 (mouse, strain BALB/cJ, males, in feed, site: liver, lesion: hepatoma, dosed 26 weeks, study length 47 weeks) stood at 64.6 mg/kg/day; the TD50 (mouse, strain BALB/cJ, males, in feed, site: liver, lesion: hepatoma, dosed 47 weeks, study length 47 weeks) was 9.58 mg/kg/day; the TD50 (rat, strain Fischer 344, females, in feed, site: liver, lesion: adenoma, NOS, dosed 105 weeks, study length 105 weeks) is 34.8 mg/kg/day; the TD50 (rat, strain Fischer 344, males, in feed, site: all sites, lesion: leukemia + lymphoma, dosed 105 weeks, study length 105 weeks) came to 5.94 mg/kg/day; the TD50 (rat, strain Fischer 344, males, in feed, site: all sites, lesion: leukemia, dosed 105 weeks, study length 105 weeks) came to 6.75 mg/kg/day; the TD50 (rat, strain Fischer 344, males, in feed, site: any site (literature study), lesion: several types, types named in the paper, dosed 105 weeks, study length 105 weeks) is 3.23 mg/kg/day. The TD50 runs as follows: (rat, strain Fischer 344, males, in feed, site: cecum + jejunum + stomach, lesion: adenocarcinoma, NOS, dosed 105 weeks, study length 105 weeks) 34.6 mg/kg/day; (rat, strain Fischer 344, males, in feed, site: liver, lesion: adenoma, NOS + hepatocellular carcinoma, dosed 105 weeks, study length 105 weeks) 15.1 mg/kg/day; (rat, strain Fischer 344, males, in feed, site: liver, lesion: hepatocellular adenoma + hepatocellular carcinoma + neoplastic nodule, dosed 105 weeks, study length 105 weeks) 20.8 mg/kg/day; (rat, strain Sprague-Dawley, females, in feed, site: liver, lesion: cholangioma, dosed 104 weeks, study length 104 weeks) 15.3 mg/kg/day; (rat, strain Sprague-Dawley, females, in feed, site: liver, lesion: hepatocellular adenoma, dosed 104 weeks, study length 104 weeks) 3.07 mg/kg/day; (rat, strain Sprague-Dawley, females, in feed, site: liver, lesion: hepatocellular carcinoma, dosed 104 weeks, study length 104 weeks) 28.6 mg/kg/day. The TD50 (rat, strain Sprague-Dawley, females, in feed, site: liver, lesion: several types, types named in the paper, dosed 104 weeks, study length 104 weeks) is 2.82 mg/kg/day; the TD50 (rat, strain Sprague-Dawley, males, in feed, site: liver, lesion: several types, types named in the paper, dosed 104 weeks, study length 104 weeks) is 55.1 mg/kg/day; the TD50 (rat, strain Sprague-Dawley, males, in feed, site: thyroid gland, lesion: follicular-cell adenoma, dosed 104 weeks, study length 104 weeks) is 20.2 mg/kg/day; the TD50 (rat, strain Sprague-Dawley, males, in feed, site: thyroid gland, lesion: follicular-cell carcinoma, dosed 104 weeks, study length 104 weeks) was determined as 89 mg/kg/day; the TD50 (rat, strain Sprague-Dawley, males, in feed, site: thyroid gland, lesion: several types, types named in the paper, dosed 104 weeks, study length 104 weeks) is 16.1 mg/kg/day. The carcinogen call (rat, strain Fischer 344, females, in feed, site: stomach, lesion: adenocarcinoma, NOS, dosed 105 weeks, study length 105 weeks) is “a”.
In the case of `Nc1ccc(-c2ccc(N)c(N)c2)cc1N`, the TD50 (mouse, strain CD-1 HaM/ICR, females, in feed, site: any site (literature study), lesion: several types, types named in the paper, dosed 77 weeks, study length 98 weeks) was 599 mg/kg/day (inactive); the TD50 (mouse, strain CD-1 HaM/ICR, females, in feed, site: liver, lesion: several types, types named in the paper, dosed 77 weeks, study length 98 weeks) was 1690 mg/kg/day (inactive); the TD50 (mouse, strain CD-1 HaM/ICR, females, in feed, site: lung, lesion: several types, types named in the paper, dosed 77 weeks, study length 98 weeks) is 1030 mg/kg/day (inactive); the TD50 (mouse, strain CD-1 HaM/ICR, males, in feed, site: any site (literature study), lesion: several types, types named in the paper, dosed 77 weeks, study length 94 weeks) was 224 mg/kg/day; the TD50 (mouse, strain CD-1 HaM/ICR, males, in feed, site: liver, lesion: several types, types named in the paper, dosed 77 weeks, study length 94 weeks) was 4170 mg/kg/day (inactive); the TD50 (mouse, strain CD-1 HaM/ICR, males, in feed, site: lung, lesion: several types, types named in the paper, dosed 77 weeks, study length 94 weeks) is 288 mg/kg/day. Moreover, the TD50 is 200 mg/kg/day (rat, strain Charles River CD (Sprague-Dawley), males, in feed, site: any site (literature study), lesion: several types, types named in the paper, dosed 77 weeks, study length 107 weeks); 395 mg/kg/day (rat, strain Charles River CD (Sprague-Dawley), males, in feed, site: liver, lesion: hepatoma, dosed 77 weeks, study length 107 weeks); 259 mg/kg/day (rat, strain Charles River CD (Sprague-Dawley), males, in feed, site: liver, lesion: several types, types named in the paper, dosed 77 weeks, study length 107 weeks).
Turning to `OCCBr`, the TD50 is, setting by setting: (mouse, strain B6C3F1, females, in drinking water, site: any site (literature study), lesion: several types, types named in the paper, dosed 79 weeks, study length 79 weeks) 73.2 mg/kg/day; (mouse, strain B6C3F1, females, in drinking water, site: forestomach, lesion: squamous-cell papilloma, dosed 79 weeks, study length 79 weeks) 69.7 mg/kg/day; (mouse, strain B6C3F1, females, in drinking water, site: liver, lesion: hemangioma, dosed 79 weeks, study length 79 weeks) 800 mg/kg/day; (mouse, strain B6C3F1, females, in drinking water, site: lung, lesion: papillary tumor, dosed 79 weeks, study length 79 weeks) 1890 mg/kg/day; (mouse, strain B6C3F1, males, in drinking water, site: any site (literature study), lesion: several types, types named in the paper, dosed 78 weeks, study length 78 weeks) 86.6 mg/kg/day; (mouse, strain B6C3F1, males, in drinking water, site: forestomach, lesion: squamous-cell papilloma, dosed 78 weeks, study length 78 weeks) 83.9 mg/kg/day.
